Assay results published in patent US8420607B2 (priority 2006, dated 2013).

What was measured:
[1] = system: rabbit anti-live spore B. anthracis Sterne 34F2 antiserum; type: binding
[2] = system: rabbit anti-B. anthracis live spore antiserum IgG; type: binding
[3] = system: anti-anthrose IgG in rhesus macaque sera; type: binding, rhesus macaques
[4] = system: rabbit anti-irradiated spore B. anthracis Sterne 34F2 antiserum; type: binding
[5] = system: IgG antibodies of rabbit anti-live spore, anti-irradiated spore and anti-polysaccharide-KLH antisera; type: binding
[6] = system: rabbit anti-spore serum (live spore antiserum); type: binding

COC1C(OC2C(O)C(C)OC(OC3C(O)C(C)OC(OCCCN)C3O)C2O)OC(C)C(NC(C)=O)C1O [analogue 4, 3-aminopropyl O-(4-acetamido-2-O-methyl-4,6-dideoxy-β-D-glucopyranosyl)-(1→3)-O-(α-L-rhamnopyranosyl)-(1→3)-β-L-rhamnopyranoside]
Reduction in reporter signal (OD) compared to the control [1]: 17%

CO[C@H]1[C@H](O[C@@H]2[C@@H](O)[C@H](C)O[C@@H](O[C@@H]3[C@@H](O)[C@H](C)O[C@@H](OCCCN)[C@@H]3O)[C@@H]2O)O[C@H](C)[C@@H](NC(=O)CC(C)(C)O)[C@@H]1O [trisaccharide 1, 3-aminopropyl O-(4-(3-hydroxy-3-methylbutamido)-2-O-methyl-4,6-dideoxy-β-D-glucopyranosyl)-(1→3)-O-(α-L-rhamnopyranosyl)-(1→3)-α-L-rhamnopyranoside]
Inhibition of antiserum binding to B. anthracis Pasteur HF-PS-BSA [2]: no inhibition was observed
Inhibition of anti-anthrose response measured by ELISA [3]: specifically inhibited
Inhibition of serum binding to KLH-A-3 [3]: inhibited binding
Inhibition of serum binding to KLH-conjugated trisaccharide [3]: Binding could be specifically inhibited
Inhibition of interaction of antisera from rabbits immunized with irradiated spores [4]: could also be inhibited in a dose response manner
Drop in OD by competing free trisaccharide [1]: significant drop in OD

CC1OC(OC2C(O)C(C)OC(OCCCN)C2O)C(O)C(OC2OC(C)C(NC(=O)CC(C)(C)O)C(O)C2O)C1O [trisaccharide 2, 3-aminopropyl O-(4-(3-hydroxy-3-methylbutamido)-4,6-dideoxy-β-D-glucopyranosyl)-(1→3)-O-(α-L-rhamnopyranosyl)-(1→3)-α-L-rhamnopyranoside]
Relative recognition by antibodies elicited by the live spore vaccine [5]: recognized trisaccharide 2 much better than 1

COC1C(OC2C(O)C(C)OC(OC3C(O)C(C)OC(OCCCN)C3O)C2O)OC(C)C(NC(=O)CC(C)C)C1O [trisaccharide 3, 3-aminopropyl O-(4-(3-methylbutamido)-2-O-methyl-4,6-dideoxy-β-D-glucopyranosyl)-(1-→3)-O-(α-L-rhamnopyranosyl)-(1→3)-α-L-rhamnopyranoside]
Reduction in reporter signal (OD) compared to the control [1]: 85%

maltoheptaose [reference compound]
Inhibition of antiserum binding to B. anthracis HF-PS-BSA [6]: no significant inhibition
